Test results reported in PubChem BioAssay AID1329 (NMMLSC, 2008).
Activity calls are given as the source filed them. How the calls were made is not given here.

Each compound was assayed against Induced myeloid leukemia cell differentiation protein Mcl-1 (Homo sapiens) (UniProt Q07820) (assay: modulators of Bim peptide binding to Mcl-1, dose response, biochemical, bead-based flow cytometry, multiplexed, human (AID 1329)). Conditions: Bim peptide-Mcl-1 binding, MCF.
Induced myeloid leukemia cell differentiation protein Mcl-1 (Homo sapiens), sequence (Q07820 whole entry, looked up): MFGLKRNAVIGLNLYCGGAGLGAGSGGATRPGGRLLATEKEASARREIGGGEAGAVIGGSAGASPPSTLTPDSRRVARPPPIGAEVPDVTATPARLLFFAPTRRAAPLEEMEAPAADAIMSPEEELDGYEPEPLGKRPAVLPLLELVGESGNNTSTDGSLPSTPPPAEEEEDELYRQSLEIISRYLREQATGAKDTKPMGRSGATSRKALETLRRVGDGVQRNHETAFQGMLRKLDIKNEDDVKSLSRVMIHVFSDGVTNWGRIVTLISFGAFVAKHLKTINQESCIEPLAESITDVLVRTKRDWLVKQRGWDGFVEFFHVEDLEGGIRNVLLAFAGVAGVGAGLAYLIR

Row | SMILES | percent span
1 | CCCn1c(N2CCN(C)CC2)nc2c1c(=O)[nH]c(=O)n2C | inactive
2 | CC(=O)Nc1ccc(NC2=C(Cl)C(=O)c3ccccc3C2=O)cc1 | inactive
3 | CCCn1c(SCC(=O)Nc2ccccc2-c2ccccc2)nnc1-c1ccoc1C | inactive
4 | O=C1C(Cl)=C(N2CCN(c3ccccc3[N+](=O)[O-])CC2)C(=O)c2ccccc21 | inactive
5 | NC(=O)c1c(N)sc2c1CCCCC2 | inactive
6 | COc1ccc(NC(=O)c2ccco2)cc1NC(=O)c1ccco1 | inactive
7 | O=C(O)CCN1C(=O)/C(=C\c2ccc(-c3nc4ccccc4s3)o2)SC1=S | inactive
8 | Fc1ccccc1-n1cc(-c2ccccc2)[nH]c1=S | inactive
9 | CN=c1scc(C)n1/N=C/c1ccc(O)c(O)c1O | inactive
10 | Cc1ccc(N=c2ssnc2Cl)cc1 | inactive
11 | CCOC(=O)c1snc(-c2ccc(F)cc2)c1N | inactive
12 | CCOC(=O)c1c2c3c(cccc3[nH]c1=O)C(=O)c1ccccc1-2 | inactive
13 | CNc1ccc(Br)cc(C(=O)/C=C/c2cccc(OC)c2OC)c1=O | inactive
14 | CN1C2C=C3C(C#N)=C(N)C(C#N)(C#N)[C@@H](c4ccsc4)[C@@H]3C1CC2 (some centres not stated) | inactive
15 | O=C1C(=O)c2ccc(-c3ccccc3)cc2-c2ccccc21 | inactive
16 | Cn1c(=O)[nH]c(=O)c2c1nc(N1CCOCC1)n2CCSc1nc2ccccc2[nH]1 | inactive
17 | Cc1ccc(-c2cc(C(=O)Nc3nccs3)c3ccccc3n2)o1 | inactive
18 | Cc1cccc(-c2nnc3n2N=C(c2ccccc2)CS3)c1 | inactive
19 | O=C(NCc1ccco1)C1CC2CCC1C2 (configuration not stated) | inactive
20 | Cc1ccc(-c2nnc(Cc3ccc(Cl)cc3)o2)cc1 | inactive
21 | CN1CCN(c2ccccc2N)CC1 | inactive
22 | CN(Cc1cccs1)C(=O)CCc1c[nH]c2ccccc12 | inactive
23 | CCN(CC)c1ccc(-c2nn3c(-c4ccccc4OC)nnc3s2)cc1 | inactive
24 | CCCCCCc1cc2cc(C(=O)Nc3ccccc3)c(=O)oc2cc1O | inactive
25 | CCOC(=O)C1CCCN(c2ncnc3c2cnn3-c2cccc(C)c2)C1 (configuration not stated) | inactive
26 | CCOC(=O)c1sc(NC(=O)c2ccncc2)c(C#N)c1C | inactive

Row | SMILES | percent span
27 | O=C(COc1ccccc1)Nc1ccc2c(c1)Cc1cc(NC(=O)COc3ccccc3)ccc1-2 | inactive
28 | O=C(CC1NCCNC1=O)Nc1cccc([N+](=O)[O-])c1 (configuration not stated) | inactive
29 | COc1ccc(OC)c(Nc2ccc(C(=O)O)cc2[N+](=O)[O-])c1 | inactive
30 | Cc1cccn2c(=O)c3cc(C(N)=S)c(=N)n(CCCN4CCOCC4)c3nc12 | inactive
31 | CCn1cc(C=C2C(=O)c3ccccc3C2=O)c2ccccc21 | inactive
32 | COCCN=c1scc(-c2cccs2)n1/N=C/c1ccc(O)c(O)c1O | inactive
33 | CCN(CC)c1ccc(NC(=O)c2ccccc2F)cc1S(=O)(=O)Nc1ccccc1OC | inactive
34 | CCCCC(C(=O)OCC)C(N)Cc1ccc(F)cc1 (configuration not stated) | inactive
35 | CCCCCCn1nc(C(=O)Nc2nc3c(s2)CCCC3)c2ccccc2c1=O | inactive
36 | CCCCOc1ccc(Cc2c(Cl)nc(SC)nc2N2CCOCC2)cc1 | inactive
37 | COP(=O)(CC(=O)O)c1ccccc1 (configuration not stated) | inactive
38 | c1ccc(Nc2nc(-c3ccncc3)cs2)cc1 | inactive
39 | Cc1cc(N2CCN(C)CC2)nc2ccc(NC(=S)N3CCC4(CC3)OCCO4)cc12 | inactive
40 | OCCC1CN(Cc2ccc3ncccc3c2)CCN1Cc1ccccc1 (configuration not stated) | inactive
41 | COc1ccc2nc(-c3ccco3)c(-c3ccco3)nc2c1 | inactive
42 | CCn1c(C)nc2cc(C(=O)N/N=C/c3ccc(O)c(O)c3O)ccc21 | inactive
43 | Cc1nnc(Sc2cc(NCCO)c([N+](=O)[O-])c3nonc23)s1 | inactive
44 | COc1c(C)cc(Br)cc1C(=O)Nc1ccc(S(N)(=O)=O)cc1 | inactive
45 | Cc1ccccc1-n1nc(SCC(=O)O)sc1=S | inactive
46 | c1csc(C2=Nn3c(nnc3-c3ccncc3)SC2)c1 | inactive
47 | CN(C)C(Cc1ccccc1)C(=O)c1cccs1 (configuration not stated) | inactive
48 | CCN(C(=O)COC(=O)c1cc(-c2ccc(C)o2)nc2ccccc12)C1CCS(=O)(=O)C1 (configuration not stated) | inactive
49 | CCC(=O)OCCNc1cc(Sc2nccn2C)c2nonc2c1[N+](=O)[O-] | inactive
50 | COc1ccc2nc(C)cc(SCC(=O)N/N=C/c3ccc(O)c(O)c3)c2c1 | inactive
51 | CCc1nnc(NS(=O)(=O)c2ccc(N=CC3=C(O)CC(C)(C)CC3=O)cc2)s1 | inactive
52 | O=C(NC1=C(NC2CCS(=O)(=O)C2)C(=O)c2ccccc2C1=O)c1ccccc1 (configuration not stated) | inactive

Row | SMILES | percent span
53 | COC(=O)Cc1cc(=O)[nH]c(Nc2nc3ccccc3o2)n1 | inactive
54 | CN(C(=O)NC1CCCCC1)c1ccccc1 | inactive
55 | CN(C)/C=C/C(=O)c1ccc(C(F)(F)F)cc1F | inactive
56 | O=C1N/C(=C/c2cccn2-c2ccccc2)C(=O)N1Cc1ccc(F)cc1 | inactive
57 | Cn1c(N)c(C(=O)COC(=O)c2cncc(Br)c2)c(=O)n(C)c1=O | inactive
58 | COc1ccc(CCNC(=O)c2cc(-c3ccccn3)nc3c(Cl)cccc23)cc1OC | inactive
59 | COC(=O)c1cccc(-n2c(C)cc(C=O)c2C)c1 | inactive
60 | COc1ccc(C(=O)NC(=S)N2CCNC(=O)C2)cc1Br | inactive
61 | CC(C)CCN1CCN(Cc2cccc3cccnc23)CC1CCO (configuration not stated) | inactive
62 | O=C(C1=NN[C@@H]2C(=O)N(c3ccccc3C(F)(F)F)C(=O)[C@H]12)c1ccc2ccccc2n1 | inactive
63 | O=C1/C(=C\c2ccco2)NC(=S)N1c1ccccc1 | inactive
64 | Cc1ccc(C)n1-c1cccc(C(=O)O)c1 | inactive
65 | O=C1c2ccccc2C(=O)N1c1cccc2cccnc12 | inactive
66 | CCN1/C(=C\c2ccc3cc(C)ccc3[n+]2CC)Sc2cc(C)c(C)cc21 | inactive
67 | CCCCNC(=O)c1ccc2nc(-c3ccco3)c(-c3ccco3)nc2c1 | inactive
68 | Cc1ccc(/C=C/C(=O)c2ccccc(=O)c2O)cc1C | inactive
69 | O=C(c1ccccc1NS(=O)(=O)c1ccc(Br)s1)N1CCCC1 | inactive
70 | COc1ccc2cc(CN(CCc3ccccc3)Cc3nnnn3CC3CCCO3)c(=O)[nH]c2c1 (configuration not stated) | inactive
71 | O=C(NNC(=O)C12CC3CC(CC(C3)C1)C2)c1ccco1 | inactive
72 | CNCc1ccccc1Sc1cc(O)ccc1O | inactive
73 | COc1cc(C2Nc3cccc4cccc(c34)N2)ccc1OC(C)=O | inactive
74 | CNc1ccc(Br)cc(C(=O)/C=C/c2cccc(OC)c2)c1=O | inactive
75 | COc1ccc(/C=C/C(=O)Nc2sc(Cc3ccccc3)c(C)c2C(N)=O)cc1 | inactive
76 | O=C(C[n+]1ccc(-c2nnc3n2CCC3)cc1)c1ccc(Cl)cc1 | inactive
77 | O=C(COCC(=O)NCc1ccccc1)NCc1ccccc1 | inactive
